Columns and labels:
Assay in all cases: biochemical
Set-up in all cases: Invitrogen kinase panel: Z'Lyte activity (ATP at Km) or LanthaScreen competitive ATP-site binding, percent inhibition
[1] = target: T1, Hyl (Homo sapiens, UniProt P42679)
T1 construct: gene MATK

[2] = target: T2, MST2 (Homo sapiens, UniProt Q13188)
T2 construct: gene STK3

[3] = target: CLK1 (Homo sapiens, UniProt P49759)
[4] = target: PAK3 (Homo sapiens, UniProt O75914)
[5] = target: T3, PI3K-G (Homo sapiens, UniProt P48736)
T3 construct: gene PIK3CG

[6] = target: T4, p38_delta (Homo sapiens, UniProt O15264)
T4 construct: gene MAPK13

[7] = target: PIM1 (Homo sapiens, UniProt P11309)
[8] = target: T5, FAK (Homo sapiens, UniProt Q05397)
T5 construct: gene PTK2

[9] = target: T6, PRK1 (Homo sapiens, UniProt Q16512)
T6 construct: gene PKN1
T6 sequence (Q16512 whole entry): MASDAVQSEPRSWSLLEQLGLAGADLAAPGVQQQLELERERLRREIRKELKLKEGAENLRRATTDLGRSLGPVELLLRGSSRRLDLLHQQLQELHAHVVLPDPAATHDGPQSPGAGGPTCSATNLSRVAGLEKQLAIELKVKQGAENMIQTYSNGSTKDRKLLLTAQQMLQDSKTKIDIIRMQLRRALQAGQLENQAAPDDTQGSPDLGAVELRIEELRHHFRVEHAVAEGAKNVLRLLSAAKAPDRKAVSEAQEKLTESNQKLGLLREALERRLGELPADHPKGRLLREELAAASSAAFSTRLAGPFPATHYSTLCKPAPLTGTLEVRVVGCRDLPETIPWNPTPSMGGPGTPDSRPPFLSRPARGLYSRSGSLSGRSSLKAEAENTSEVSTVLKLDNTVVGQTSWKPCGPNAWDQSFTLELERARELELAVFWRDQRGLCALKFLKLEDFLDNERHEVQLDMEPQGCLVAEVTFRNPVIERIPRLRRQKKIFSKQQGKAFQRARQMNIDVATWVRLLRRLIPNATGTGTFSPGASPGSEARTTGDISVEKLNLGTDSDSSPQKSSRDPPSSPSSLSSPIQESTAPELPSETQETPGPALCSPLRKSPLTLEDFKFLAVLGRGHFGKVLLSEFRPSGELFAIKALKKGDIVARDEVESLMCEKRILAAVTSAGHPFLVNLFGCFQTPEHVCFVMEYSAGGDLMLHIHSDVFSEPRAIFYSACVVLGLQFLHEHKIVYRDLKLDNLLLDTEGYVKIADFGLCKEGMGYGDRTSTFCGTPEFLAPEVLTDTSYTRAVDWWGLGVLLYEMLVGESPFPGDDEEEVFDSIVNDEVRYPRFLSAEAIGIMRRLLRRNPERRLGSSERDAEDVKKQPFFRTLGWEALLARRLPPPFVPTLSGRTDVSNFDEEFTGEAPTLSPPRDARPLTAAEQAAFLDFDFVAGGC

[10] = target: IRAK1 (Homo sapiens, UniProt P51617)
[11] = target: DYRK4 (Homo sapiens, UniProt Q9NR20)
[12] = target: T7, YSK1 (Homo sapiens, UniProt O00506)
T7 construct: gene STK25
T7 sequence (O00506 whole entry): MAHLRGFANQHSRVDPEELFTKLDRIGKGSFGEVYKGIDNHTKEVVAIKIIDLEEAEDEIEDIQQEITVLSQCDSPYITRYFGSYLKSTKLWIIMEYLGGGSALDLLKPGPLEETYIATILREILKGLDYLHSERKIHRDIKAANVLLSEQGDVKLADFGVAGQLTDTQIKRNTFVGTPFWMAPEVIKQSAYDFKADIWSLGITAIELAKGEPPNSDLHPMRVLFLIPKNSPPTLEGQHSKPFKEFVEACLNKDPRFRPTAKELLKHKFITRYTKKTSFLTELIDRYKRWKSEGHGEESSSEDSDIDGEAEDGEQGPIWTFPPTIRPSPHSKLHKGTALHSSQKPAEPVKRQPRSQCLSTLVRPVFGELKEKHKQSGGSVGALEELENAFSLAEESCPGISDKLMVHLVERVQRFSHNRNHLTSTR

[13] = target: MKNK1 (Homo sapiens, UniProt Q9BUB5)
[14] = target: HIPK2 (Homo sapiens, UniProt Q9H2X6)
[15] = target: ErbB4 (Homo sapiens, UniProt Q15303)
[16] = target: MARK1 (Homo sapiens, UniProt Q9P0L2)
MARK1, sequence (Q9P0L2 whole entry): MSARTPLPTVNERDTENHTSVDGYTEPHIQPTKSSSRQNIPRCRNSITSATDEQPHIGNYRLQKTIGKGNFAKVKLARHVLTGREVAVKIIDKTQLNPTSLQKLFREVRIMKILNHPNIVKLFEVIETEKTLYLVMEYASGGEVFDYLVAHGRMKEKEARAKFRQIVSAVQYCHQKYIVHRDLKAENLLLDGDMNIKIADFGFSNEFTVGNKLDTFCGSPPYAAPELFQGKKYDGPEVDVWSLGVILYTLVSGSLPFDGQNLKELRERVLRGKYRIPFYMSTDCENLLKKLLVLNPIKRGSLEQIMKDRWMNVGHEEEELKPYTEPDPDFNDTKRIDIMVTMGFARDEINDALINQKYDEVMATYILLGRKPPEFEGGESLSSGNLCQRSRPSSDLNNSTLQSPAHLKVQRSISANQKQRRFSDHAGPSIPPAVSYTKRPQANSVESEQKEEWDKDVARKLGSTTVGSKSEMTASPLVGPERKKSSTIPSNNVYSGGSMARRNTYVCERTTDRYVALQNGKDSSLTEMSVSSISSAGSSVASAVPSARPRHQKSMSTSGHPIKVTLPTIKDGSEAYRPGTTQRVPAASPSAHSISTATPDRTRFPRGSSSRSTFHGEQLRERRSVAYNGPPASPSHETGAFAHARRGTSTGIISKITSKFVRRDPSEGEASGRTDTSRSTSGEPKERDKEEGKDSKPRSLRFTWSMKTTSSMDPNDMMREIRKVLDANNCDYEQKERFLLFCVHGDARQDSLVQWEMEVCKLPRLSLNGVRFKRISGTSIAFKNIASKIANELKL

[17] = target: T8, p38_alpha(direct) (Homo sapiens, UniProt Q16539)
T8 construct: gene MAPK14; direct

[18] = target: T9, IRE2 (Homo sapiens, UniProt Q76MJ5)
T9 construct: gene ERN2

[19] = target: T10, MSK1 (Homo sapiens, UniProt O75582)
T10 construct: gene RPS6KA5

[20] = target: EphB3 (Homo sapiens, UniProt P54753)
[21] = target: T11, ZAK (Homo sapiens, UniProt Q9NYL2)
T11 construct: gene MAP3K20

[22] = target: PLK1 (Homo sapiens, UniProt P53350)
[23] = target: WNK2 (Homo sapiens, UniProt Q9Y3S1)
WNK2, sequence (Q9Y3S1 whole entry): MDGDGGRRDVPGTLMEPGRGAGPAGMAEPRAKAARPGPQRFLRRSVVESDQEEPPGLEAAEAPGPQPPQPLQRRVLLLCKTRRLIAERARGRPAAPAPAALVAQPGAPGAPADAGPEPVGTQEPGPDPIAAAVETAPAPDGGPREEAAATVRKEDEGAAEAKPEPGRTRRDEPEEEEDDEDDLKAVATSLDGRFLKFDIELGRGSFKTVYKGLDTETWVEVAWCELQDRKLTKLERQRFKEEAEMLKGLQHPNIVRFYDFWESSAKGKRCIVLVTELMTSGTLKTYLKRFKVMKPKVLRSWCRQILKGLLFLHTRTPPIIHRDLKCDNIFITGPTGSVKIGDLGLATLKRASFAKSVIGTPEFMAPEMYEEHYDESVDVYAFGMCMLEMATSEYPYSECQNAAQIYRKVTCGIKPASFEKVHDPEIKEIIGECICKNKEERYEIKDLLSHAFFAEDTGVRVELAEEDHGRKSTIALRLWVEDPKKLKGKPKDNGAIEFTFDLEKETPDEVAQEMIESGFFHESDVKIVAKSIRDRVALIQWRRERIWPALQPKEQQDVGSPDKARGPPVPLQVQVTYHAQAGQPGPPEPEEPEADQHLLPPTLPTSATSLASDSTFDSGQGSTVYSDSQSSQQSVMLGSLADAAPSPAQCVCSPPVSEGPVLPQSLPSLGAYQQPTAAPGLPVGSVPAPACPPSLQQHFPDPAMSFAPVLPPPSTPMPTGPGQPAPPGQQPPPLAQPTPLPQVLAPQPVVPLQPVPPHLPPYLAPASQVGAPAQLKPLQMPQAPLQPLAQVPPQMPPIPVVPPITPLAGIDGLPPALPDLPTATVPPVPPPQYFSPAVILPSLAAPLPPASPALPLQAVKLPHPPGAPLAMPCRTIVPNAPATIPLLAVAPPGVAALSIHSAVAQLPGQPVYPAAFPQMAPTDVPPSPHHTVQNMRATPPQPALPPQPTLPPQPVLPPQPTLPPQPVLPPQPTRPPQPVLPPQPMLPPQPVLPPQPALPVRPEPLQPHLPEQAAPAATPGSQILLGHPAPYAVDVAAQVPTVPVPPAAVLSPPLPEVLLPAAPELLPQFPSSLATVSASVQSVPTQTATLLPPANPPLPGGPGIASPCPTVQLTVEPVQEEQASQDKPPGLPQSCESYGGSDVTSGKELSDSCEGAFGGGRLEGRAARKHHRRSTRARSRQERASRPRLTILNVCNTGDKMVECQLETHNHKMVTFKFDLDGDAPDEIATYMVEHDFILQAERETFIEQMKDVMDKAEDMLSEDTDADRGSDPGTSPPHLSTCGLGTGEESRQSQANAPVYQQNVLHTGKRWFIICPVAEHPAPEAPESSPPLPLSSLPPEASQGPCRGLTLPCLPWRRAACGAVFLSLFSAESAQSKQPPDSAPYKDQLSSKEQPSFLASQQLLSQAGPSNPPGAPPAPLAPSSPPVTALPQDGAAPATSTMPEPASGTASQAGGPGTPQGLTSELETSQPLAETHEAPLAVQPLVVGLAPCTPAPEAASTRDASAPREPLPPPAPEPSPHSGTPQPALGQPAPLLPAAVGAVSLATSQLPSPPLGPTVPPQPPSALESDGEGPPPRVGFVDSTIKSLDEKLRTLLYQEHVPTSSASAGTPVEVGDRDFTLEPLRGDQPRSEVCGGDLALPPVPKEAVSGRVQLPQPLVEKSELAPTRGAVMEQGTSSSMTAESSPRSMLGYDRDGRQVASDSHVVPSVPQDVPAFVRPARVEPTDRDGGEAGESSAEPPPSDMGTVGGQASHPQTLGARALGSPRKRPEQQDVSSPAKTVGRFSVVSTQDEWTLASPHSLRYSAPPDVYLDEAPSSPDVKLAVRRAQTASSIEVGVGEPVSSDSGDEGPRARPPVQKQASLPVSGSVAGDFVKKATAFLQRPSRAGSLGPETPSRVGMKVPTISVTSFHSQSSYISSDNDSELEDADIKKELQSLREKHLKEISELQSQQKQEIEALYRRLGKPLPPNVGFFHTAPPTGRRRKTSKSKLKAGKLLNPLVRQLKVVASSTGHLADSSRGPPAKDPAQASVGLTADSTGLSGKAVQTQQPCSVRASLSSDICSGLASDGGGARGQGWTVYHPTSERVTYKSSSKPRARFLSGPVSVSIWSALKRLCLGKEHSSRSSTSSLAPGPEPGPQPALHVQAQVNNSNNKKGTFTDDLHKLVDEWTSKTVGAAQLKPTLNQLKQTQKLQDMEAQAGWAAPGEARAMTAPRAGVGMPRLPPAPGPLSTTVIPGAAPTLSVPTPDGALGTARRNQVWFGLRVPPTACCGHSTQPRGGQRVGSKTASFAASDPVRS

[24] = target: ErbB2 (Homo sapiens, UniProt P04626)
[25] = target: PLK3 (Homo sapiens, UniProt Q9H4B4)

T1 sequence (P42679 whole entry): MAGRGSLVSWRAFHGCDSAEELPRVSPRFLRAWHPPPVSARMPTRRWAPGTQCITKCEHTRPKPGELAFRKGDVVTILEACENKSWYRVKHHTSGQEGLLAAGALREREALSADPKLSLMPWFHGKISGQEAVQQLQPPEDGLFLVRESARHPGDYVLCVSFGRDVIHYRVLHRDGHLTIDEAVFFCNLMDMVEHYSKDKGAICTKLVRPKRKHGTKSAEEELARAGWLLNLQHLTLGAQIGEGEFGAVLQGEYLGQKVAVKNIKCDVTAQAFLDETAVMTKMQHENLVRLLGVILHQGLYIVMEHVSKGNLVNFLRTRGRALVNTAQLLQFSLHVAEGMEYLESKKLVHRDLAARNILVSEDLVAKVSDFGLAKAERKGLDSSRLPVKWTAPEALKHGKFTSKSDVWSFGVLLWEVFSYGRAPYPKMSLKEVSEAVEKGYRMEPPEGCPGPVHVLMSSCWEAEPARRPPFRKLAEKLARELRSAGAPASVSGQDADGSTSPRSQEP

Row | Structure (SMILES) | inhibition at 1 µM [1] | inhibition at 1 µM [2] | inhibition at 1 µM [3] | inhibition at 1 µM [4] | inhibition at 1 µM [5] | inhibition at 1 µM [6] | inhibition at 1 µM [7] | inhibition at 1 µM [8] | inhibition at 1 µM [9] | inhibition at 1 µM [10] | inhibition at 1 µM [11] | inhibition at 1 µM [12] | inhibition at 1 µM [13] | inhibition at 1 µM [14] | inhibition at 1 µM [15] | inhibition at 1 µM [16] | inhibition at 1 µM [17] | inhibition at 1 µM [18] | inhibition at 1 µM [19] | inhibition at 1 µM [20] | also measured
1 | CCOC(=O)Nc1cccc2c(Oc3ncccc3-c3ccnc(N[C@H]4CCCNC4)n3)c(C)ccc12 [G-1749] | 6.5% | 5.5% | 6% | 6.5% | 16% | 11.5% | -5.5% | 1.5% | 0% | 9% | 2.5% | 2.5% | 1.5% | 3% | 4.5% | 10% | 77.5% | 9.5% | -3% | 3% | inhibition at 1 µM [21]: -0.5%; inhibition at 1 µM [22]: 5%; inhibition at 1 µM [23]: -1%; inhibition at 1 µM [24]: 7.5%; inhibition at 1 µM [25]: -5%
2 | CC#CC(=O)Nc1cccc2c(Oc3ncccc3-c3ccnc(N[C@H]4CCCNC4)n3)c(C)ccc12 [G-7658] | 6.5% | 2.5% | 5.5% | 5% | -7% | 13.5% | -6% | 1.5% | -1.5% | 11.5% | 1% | -3% | -1% | 2.5% | 11.5% | 9% | 36.5% | 5.5% | -6% | 4.5% | inhibition at 1 µM [21]: 0.5%; inhibition at 1 µM [22]: 6%; inhibition at 1 µM [23]: -2.5%; inhibition at 1 µM [24]: 3.5%; inhibition at 1 µM [25]: -2.5%

— paper PMC7736581, “Activation of the IRE1 RNase through remodeling of the kinase front pocket by ATP-competitive ligands” (Nature Communications, 2020)
